Ten compounds from patent US12065443B2, “Compounds and pharmaceutical compositions thereof for the treatment of diseases” (priority 2017, dated 2024) can be followed below.

Molecules are shown by their SMILES.

Holding throughout (experiment): biochemical
Common to all, as to conditions: ADP-Glo SIK kinase assay
A general note: ADP-Glo first removes unused ATP, then detects ADP through luciferase.

In one experiment the target is T1, SIK2 (Homo sapiens, UniProt Q9H0K1).
T1 construct: purchased ThermoFisher Scientific PV4792
The procedure:
(§1) The ADP-Glo™ kinase assay is a luminescent technology assay which measures the ADP formed from a kinase reaction. […] In a second step the kinase reactions are terminated and all the remaining ATP is depleted. In a final step the ADP is converted into ATP and this newly synthesized ATP is measured by using a luciferase/luciferin reaction. The generated light is measured using an Envision plate reader, wherein the luminescent signal obtained positively correlates with the kinase activity.
(§2) 1% DMSO and 10 μM staurosporine final concentrations are used as negative and positive controls.
(§3) 2 μL enzyme-substrate mixture is added to the assay plates.
(§4) The reaction is started by adding 2 μL diluted ATP on the assay plates. Plates are centrifuged for a few seconds at 1000 rpm and gently shaken for 2 min followed by an incubation at RT for 120 min.
(§5) The reactions are stopped and the unconsumed ATP is depleted by adding 5 μL ADP-Glo Reagent (Promega, Cat #V912B) to the reaction. The plates are centrifuged for a few seconds at 1000 rpm and incubated at RT for 40 min (ATP depletion).
(§6) The ADP is converted to ATP and luciferase and luciferin is introduced to detect ATP by adding 10 μL Kinase Detection Reagent (Promega, Cat #V913B+V914B) to the reaction. The plates are centrifuged for a few seconds at 1000 rpm and incubated at RT for 30 min (ADP detection).
(§7) Luminescence is measured on an Envision plate reader (PerkinElmer Inc.).

Another experiment deals with T2, SIK1 (Homo sapiens, UniProt P57059).
T2 construct: purchased Carna Biosciences 02-131
How it is done:
as §1, §2, §3, §4, §5, §6, §7

For the next experiment, the target named is T3, SIK3 (Homo sapiens, UniProt Q9Y2K2).
T3 construct: purchased SignalChem S12-11G-100
How it is done:
as §1, §2, §3, §4, §5, §6, §7

T1 sequence (Q9H0K1 whole entry): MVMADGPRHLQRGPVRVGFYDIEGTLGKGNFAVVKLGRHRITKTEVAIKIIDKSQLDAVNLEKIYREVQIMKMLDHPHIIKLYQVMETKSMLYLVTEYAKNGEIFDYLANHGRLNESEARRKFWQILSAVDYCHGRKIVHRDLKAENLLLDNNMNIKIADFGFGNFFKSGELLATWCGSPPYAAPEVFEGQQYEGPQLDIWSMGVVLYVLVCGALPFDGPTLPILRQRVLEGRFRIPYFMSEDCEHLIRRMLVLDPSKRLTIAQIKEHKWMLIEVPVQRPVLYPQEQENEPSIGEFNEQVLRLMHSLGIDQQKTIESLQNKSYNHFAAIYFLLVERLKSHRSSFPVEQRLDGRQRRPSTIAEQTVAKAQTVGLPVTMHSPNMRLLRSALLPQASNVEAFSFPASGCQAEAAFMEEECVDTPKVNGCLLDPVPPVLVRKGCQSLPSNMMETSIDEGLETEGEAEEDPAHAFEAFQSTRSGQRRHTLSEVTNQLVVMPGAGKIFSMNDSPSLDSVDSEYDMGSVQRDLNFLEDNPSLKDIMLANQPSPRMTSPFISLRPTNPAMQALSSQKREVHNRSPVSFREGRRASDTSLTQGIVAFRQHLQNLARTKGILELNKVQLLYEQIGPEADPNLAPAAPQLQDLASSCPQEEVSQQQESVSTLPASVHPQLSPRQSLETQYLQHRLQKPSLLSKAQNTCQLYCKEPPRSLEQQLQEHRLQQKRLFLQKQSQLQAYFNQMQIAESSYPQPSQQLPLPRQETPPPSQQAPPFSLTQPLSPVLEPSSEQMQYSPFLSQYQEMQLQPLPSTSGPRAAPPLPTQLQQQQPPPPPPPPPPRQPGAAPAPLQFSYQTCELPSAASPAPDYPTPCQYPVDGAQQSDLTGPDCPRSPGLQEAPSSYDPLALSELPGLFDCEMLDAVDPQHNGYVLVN
T3 sequence (Q9Y2K2 whole entry): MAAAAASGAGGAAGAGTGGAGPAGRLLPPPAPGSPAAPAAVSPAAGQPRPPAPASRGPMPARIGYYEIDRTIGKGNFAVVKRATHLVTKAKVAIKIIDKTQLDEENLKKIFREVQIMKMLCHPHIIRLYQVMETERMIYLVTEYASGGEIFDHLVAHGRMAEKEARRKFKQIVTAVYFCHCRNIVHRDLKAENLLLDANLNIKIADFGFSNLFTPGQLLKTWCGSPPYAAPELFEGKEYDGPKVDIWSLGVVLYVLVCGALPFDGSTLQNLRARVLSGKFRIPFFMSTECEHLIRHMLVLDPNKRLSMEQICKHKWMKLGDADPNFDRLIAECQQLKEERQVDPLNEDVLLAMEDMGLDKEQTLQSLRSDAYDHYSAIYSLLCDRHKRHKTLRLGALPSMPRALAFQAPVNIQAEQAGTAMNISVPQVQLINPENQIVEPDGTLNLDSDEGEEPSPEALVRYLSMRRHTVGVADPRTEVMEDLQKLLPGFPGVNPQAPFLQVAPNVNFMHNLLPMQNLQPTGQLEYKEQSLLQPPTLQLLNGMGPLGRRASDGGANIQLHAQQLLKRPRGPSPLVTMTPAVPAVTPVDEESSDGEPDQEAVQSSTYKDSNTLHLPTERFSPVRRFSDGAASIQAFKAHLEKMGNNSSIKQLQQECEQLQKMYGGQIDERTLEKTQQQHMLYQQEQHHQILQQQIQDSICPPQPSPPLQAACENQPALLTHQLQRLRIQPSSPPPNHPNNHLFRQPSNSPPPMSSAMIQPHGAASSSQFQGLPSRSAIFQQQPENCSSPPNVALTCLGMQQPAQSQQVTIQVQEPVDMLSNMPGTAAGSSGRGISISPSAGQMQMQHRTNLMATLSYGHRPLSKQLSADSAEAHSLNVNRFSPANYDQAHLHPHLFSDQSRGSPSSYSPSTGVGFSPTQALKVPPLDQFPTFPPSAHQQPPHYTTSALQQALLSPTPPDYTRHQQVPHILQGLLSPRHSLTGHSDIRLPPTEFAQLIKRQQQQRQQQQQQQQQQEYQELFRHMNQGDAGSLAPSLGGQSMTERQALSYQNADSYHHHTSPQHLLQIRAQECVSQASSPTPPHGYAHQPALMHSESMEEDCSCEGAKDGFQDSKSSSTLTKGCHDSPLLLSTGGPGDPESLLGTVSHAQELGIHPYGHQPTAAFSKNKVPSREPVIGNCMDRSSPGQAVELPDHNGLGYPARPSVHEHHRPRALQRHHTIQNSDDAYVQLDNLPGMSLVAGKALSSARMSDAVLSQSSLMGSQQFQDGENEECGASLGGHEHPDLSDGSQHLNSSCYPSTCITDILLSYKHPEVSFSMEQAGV
T2 sequence (P57059 whole entry): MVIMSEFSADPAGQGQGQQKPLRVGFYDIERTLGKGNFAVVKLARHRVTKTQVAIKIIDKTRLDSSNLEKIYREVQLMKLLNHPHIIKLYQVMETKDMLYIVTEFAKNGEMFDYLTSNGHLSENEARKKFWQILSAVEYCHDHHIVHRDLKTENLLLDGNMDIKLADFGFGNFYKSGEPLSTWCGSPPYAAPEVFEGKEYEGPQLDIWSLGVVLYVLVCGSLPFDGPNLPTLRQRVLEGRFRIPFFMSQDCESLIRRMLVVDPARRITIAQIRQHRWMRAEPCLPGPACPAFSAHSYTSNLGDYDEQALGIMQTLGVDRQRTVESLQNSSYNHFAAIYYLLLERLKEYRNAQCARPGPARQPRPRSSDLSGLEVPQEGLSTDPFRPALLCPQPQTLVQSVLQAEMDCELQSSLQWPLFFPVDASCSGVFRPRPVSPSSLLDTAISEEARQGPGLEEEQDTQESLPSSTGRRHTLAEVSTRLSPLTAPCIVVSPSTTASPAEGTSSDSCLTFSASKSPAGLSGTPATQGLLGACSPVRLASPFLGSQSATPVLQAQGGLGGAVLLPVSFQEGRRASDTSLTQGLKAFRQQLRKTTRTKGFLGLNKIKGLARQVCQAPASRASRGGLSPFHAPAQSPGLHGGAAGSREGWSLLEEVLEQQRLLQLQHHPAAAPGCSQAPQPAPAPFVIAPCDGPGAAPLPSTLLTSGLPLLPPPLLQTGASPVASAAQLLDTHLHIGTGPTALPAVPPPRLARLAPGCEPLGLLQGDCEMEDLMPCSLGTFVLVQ

As for `CCOC(=O)C(C)Oc1cn2c(-c3cc(OC)c(C(=O)NC4CC4)c(OC(F)F)c3)cnc2cc1-c1cnn(C)c1` (stereo not drawn) [Cpd 302, ethyl 2-[3-[4-(cyclopropyl-carbamoyl)-3-(difluoromethoxy)-5-methoxy-phenyl]-7-(1-methylpyrazol-4-yl)imidazo[1,2-a]pyridin-6-yl]oxypropanoate], the IC50 against SIK2, against SIK1 and on SIK3 was 10 to 100 nM throughout.

As for `COc1cc(-c2cnc3cc(-c4cnn(C)c4)c(OC(C)C(=O)O)cn23)cc(OC(F)F)c1C(=O)NC1CC1` (stereo not drawn) [Cpd 303, 2-[3-[4-(cyclopropyl-carbamoyl)-3-(difluoromethoxy)-5-methoxy-phenyl]-7-(1-methylpyrazol-4-yl)imidazo[1,2-a]pyridin-6-yl]oxypropanoic acid], the IC50 against SIK2, against SIK1 and on SIK3 was 10 to 100 nM throughout.

Take `COc1cc(-c2cnc3cc(-c4cnn(C(C)(C)C(=O)O)c4)ccn23)cc(OC)c1C(=O)NCC(F)(F)F` [Cpd 304, 2-[4-[3-[3,5-dimethoxy-4-(2,2,2-trifluoroethyl-carbamoyl)phenyl]imidazo[1,2-a]pyridin-7-yl]pyrazol-1-yl]-2-methyl-propanoic acid]: the values for the IC50 on SIK2, against SIK1 and against SIK3 were 10 to 100 nM, 0.01 to 10 nM and 0.01 to 10 nM, respectively.

Turning to `COc1cc(-c2cnc3cc(-c4cccnc4C#N)ccn23)cc(OC)c1C(=O)NCC(F)(F)F` [compound 268, 4-[7-(2-cyano-3-pyridyl)imidazo[1,2-a]pyridin-3-yl]-2,6-dimethoxy-N-(2,2,2-trifluoroethyl)benzamide], the results for the IC50 at SIK2, against SIK1 and against SIK3 were 100 to 500 nM, > 500 nM and 10 to 100 nM, respectively.

For the compound `COc1cc(-c2cnc3cc(-c4ccc(C)nn4)ccn23)cc(OC)c1C(=O)NCC(F)(F)F` [compound 269, 2,6-dimethoxy-4-[7-(6-methylpyridazin-3-yl)imidazo[1,2-a]pyridin-3-yl]-N-(2,2,2-trifluoroethyl)benzamide], the results for the IC50 at SIK2, at SIK1 and at SIK3 were 0.01 to 10 nM, 10 to 100 nM and 0.01 to 10 nM, respectively.

In the case of `Cn1cc(-c2ccn3c(-c4cc(F)c(C(=O)NCC(F)(F)F)c(F)c4)cnc3c2)cn1` [compound 271, 2,6-difluoro-4-[7-(1-methylpyrazol-4-yl)imidazo[1,2-a]pyridin-3-yl]-N-(2,2,2-trifluoroethyl)benzamide], the IC50 on SIK2 was in the range of 0.01 to 10 nM; against SIK1 it was 100 to 500 nM; against SIK3, 10 to 100 nM.

For the compound `COc1cc(-c2cnc3cc(-c4cnn(C)c4)ccn23)cc(NC(C)C)c1C(=O)NC1CC1` [compound 277, N-cyclopropyl-2-(isopropylamino)-6-methoxy-4-[7-(1-methylpyrazol-4-yl)imidazo[1,2-a]pyridin-3-yl]benzamide], the IC50 against SIK2, on SIK1 and against SIK3 was 0.01 to 10 nM each time.

Regarding `COc1cc(-c2cnc3cc(-c4ccc(C(F)(F)F)nn4)ccn23)cc(OC(F)F)c1C(=O)NC1CC1` [compound 281, N-cyclopropyl-2-(difluoromethoxy)-6-methoxy-4-[7-[6-(trifluoromethyl)pyridazin-3-yl]imidazo[1,2-a]pyridin-3-yl]benzamide], the IC50 lay in the range of 0.01 to 10 nM against SIK2, 10 to 100 nM on SIK1 and 0.01 to 10 nM against SIK3.

`COc1cc(-c2cnc3cc(-c4ccc(C#N)nn4)ccn23)cc(OC(F)F)c1C(=O)NC1CC1` [compound 282, 4-[7-(6-cyanopyridazin-3-yl)imidazo[1,2-a]pyridin-3-yl]-N-cyclopropyl-2-(difluoromethoxy)-6-methoxy-benzamide]: the concentration for half-maximal inhibition (IC50) at SIK2, on SIK1 and on SIK3 was 0.01 to 10 nM each time.

Consider `COc1cc(-c2cnc3cc(-c4ccc(N(C)C)nn4)ccn23)cc(OC(F)F)c1C(=O)NC1CC1` [compound 283, N-cyclopropyl-2-(difluoromethoxy)-4-[7-[6-(dimethylamino)pyridazin-3-yl]imidazo[1,2-a]pyridin-3-yl]-6-methoxy-benzamide], for which the IC50 on SIK2, against SIK1 and against SIK3 was 0.01 to 10 nM throughout.

In general, IC50 refers to the concentration at which inhibition is half-maximal. A low value points to greater potency.
